Here are results for 28 compounds from EP1137645B1, “ALPHA-METHYLBENZYL-CONTAINING THIOUREA INHIBITORS OF HERPES VIRUSES CONTAINING A […] GROUP” (Wyeth, priority 1998, dated 2000).

The structures appear in SMILES notation. Converted amounts (≈) assume the structure as drawn. Read-outs that look alike come from different tables or passages of the source.

Assay [1] relates to HSV- I. Description: HSV antiviral (ELISA) assay. In kind it is cell-based. Particulars: read-out: IC50 (ug/ml) HSV. The gist of the method:
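Vero cells in DMEM with 2% FBS treated with compound 30 min before HSV-1 infection (MOI 0.006), then incubated ~24 h at 37°C. Viral replication measured by ELISA against glycoprotein D with β-galactosidase-linked secondary and fluorogenic substrate (ex 365/em 450 nm); IC50 relative to untreated fluorescence.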

The test system of assay [2] is HCMV recombinant mutant virus whose genome contains the prokaryotic beta-glucuronidase gene. Description: microbe, parasite or virus in culture. The format is cell-based, human cytomegalovirus. Particulars: Human betaherpesvirus 5, Fibroblast. An outline of the steps: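 Human foreskin fibroblasts infected with HCMV recombinant carrying beta-glucuronidase under a viral promoter (e.g. RV145) in presence of compound. At 96 h post-infection, lysates assayed for beta-glucuronidase by colorimetric or fluorogenic substrate as replication readout; IC50 estimated from varying compound amounts.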

The test system of assay [3] is VZV strain Ellen. The assay is described as follows: VZV antiviral (ELISA) assay. In kind it is cell-based. An outline of the steps:
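HFF cells infected with VZV Ellen at multiplicity below 0.1 overnight, then mixed infected/uninfected cells seeded with compound in DMEM/2% FBS and incubated three days at 37°C, 5% CO2.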
In general terms: In an ELISA, binding on a coated surface is turned into a signal by an enzyme label.

Setting [4] is: Human alphaherpesvirus 3, VZV strain Ellen, HFF cells, ELISA, read-out: IC50 (ug/ml) VZV.
Setting [5] is: read-out: IC50 ug/ml HCMV, HCMV, human foreskin fibroblasts.
Setting [6] is: Human alphaherpesvirus 3, HFF, read-out: IC50 (ug/ml) VZV, VZV strain Ellen, HFF cells, ELISA.

For the compound `O=C(Nc1ccc(NC(=S)NCc2cc(C(F)(F)F)cc(C(F)(F)F)c2)cc1)c1ccccc1F` [Example 543, N-{4-[3-(3,5-Bis-trifluoromethyl-benzyl)-thioureido]-phenyl}-2-fluoro-benzamide], the IC50 in assay [1] (HSV- I, Vero cells, ELISA) was greater than 10 µg/mL; in assay [2] (read-out: IC50 ug/ml HCMV), 0.3 µg/mL (≈ 0.582 µM); in assay [3] (setting [4]), greater than 10 µg/mL.

On to `O=C(Nc1ccc(NC(=S)Nc2ccc(OC(F)(F)F)c(Br)c2)cc1)c1ccccc1F` [Example 549, N-{4-[3-(3-Bromo-4-trifluoromethoxy-phenyl)-thioureido]-phenyl}-2-fluoro-benzamide], for which the IC50 in assay [1] (Vero), in assay [2] (setting [5]) and in assay [3] (setting [6]) was greater than 10 µg/mL each time.

Regarding `O=C(Nc1ccc(NC(=S)NCCc2cccc(F)c2)cc1)c1ccccc1F` [Example 552, 2-Fluoro-N-(4-{3-[2-(3-fluoro-phenyl)-ethyl]-thioureido}-phenyl)-benzamide], the IC50 is greater than 10 µg/mL in assay [1] (HSV- I, Vero cells, ELISA); greater than 0.5 µg/mL in assay [2] (read-out: IC50 ug/ml HCMV); greater than 10 µg/mL in assay [3] (setting [4]).

As for `O=C(Nc1ccc(NC(=S)NCCc2ccc(F)cc2)cc1)c1ccccc1F` [Example 553, 2-Fluoro-N-(4-{3-[2-(4-fluoro-phenyl)-ethyl]-thioureido}-phenyl)-benzamide], the IC50 in assay [1] (HSV- I, Vero cells, ELISA) is greater than 10 µg/mL; in assay [2] (read-out: IC50 ug/ml HCMV), greater than 0.5 µg/mL; in assay [3] (setting [4]), 7 µg/mL (≈ 17 µM).

For `O=C(Nc1ccc(NC(=S)NCCc2cccc(Cl)c2)cc1)c1ccccc1F` [Example 563, N-(4-{3-[2-(3-Chloro-phenyl)-ethyl]-thioureido}-phenyl)-2-fluoro-benzamide], the IC50 was greater than 10 µg/mL in assay [1] (Vero), greater than 0.5 µg/mL in assay [2] (setting [5]) and 9 µg/mL (≈ 21 µM) in assay [3] (setting [6]).

For the compound `CC(NC(=S)Nc1ccc(NC(=O)c2ccccc2F)cc1)c1ccccc1` (stereo not drawn) [Example 589, 2-Fluoro-N-{4-[3-(1-phenyl-ethyl)-thioureido]-phenyl}-benzamide], the IC50 in assay [1] (HSV- I, Vero cells, ELISA) was greater than 10 µg/mL; in assay [2] (read-out: IC50 ug/ml HCMV), 7 µg/mL (≈ 17.8 µM); in assay [3] (setting [4]) it was 0.36 µg/mL (≈ 0.915 µM).

As to `CC(NC(=S)Nc1ccc(NC(=O)c2ccccc2F)cc1)c1ccc(F)cc1` (stereo not drawn) [Example 591, 2-Fluoro-N-(4-{3-[1-(4-fluoro-phenyl)-ethyl]-thioureido}-phenyl)-benzamide], the IC50 in assay [1] (HSV- I, Vero cells, ELISA) was greater than 10 µg/mL; in assay [2] (read-out: IC50 ug/ml HCMV), 7 µg/mL (≈ 17 µM); in assay [3] (setting [4]) it was 1.5 µg/mL (≈ 3.65 µM).

As to `CC(C)CN(C)c1cc(NC(=S)Nc2ccc(NC(=O)c3ccccc3F)cc2)cc(C(F)(F)F)c1` [Example 596, 2-Fluoro-N-(4-{3-[3-(isobutyl-methyl-amino)-5-trifluoromethyl-phenyl]-thioureido}-phenyl)-benzamide], the IC50 was greater than 10 µg/mL in assay [1] (Vero), 2 µg/mL (≈ 3.86 µM) in assay [2] (setting [5]) and greater than 10 µg/mL in assay [3] (setting [6]).

With `CCCCN(C)c1cc(NC(=S)Nc2ccc(NC(=O)c3ccccc3F)cc2)cc(C(F)(F)F)c1` [Example 598, N-(4-{3-[3-(Butyl-methyl-amino)-5-trifluoromethyl-phenyl]-thioureido}-phenyl)-2-fluoro-benzamide], the IC50 in assay [1] (Vero), in assay [2] (setting [5]) and in assay [3] (setting [6]) was greater than 10 µg/mL each time.

Turning to `O=C(Nc1ccc(NC(=S)NCCCc2ccccc2)cc1)c1ccccc1F` [Example 628, 2-Fluoro-N-{4-[3-(3-phenyl-propyl)-thioureido]-phenyl}-benzamide], the results for the IC50 in assay [1] (Vero), in assay [2] (setting [5]) and in assay [3] (setting [6]) were greater than 10 µg/mL, greater than 10 µg/mL and 10 µg/mL (≈ 24.5 µM), respectively.

`CN(C)c1cc(CNC(=S)Nc2ccc(NC(=O)c3ccccc3F)cc2)cc(C(F)(F)F)c1` [Example 636, N-{4-[3-(3-Dimethylamino-5-trifluoromethyl-benzyl)-thioureido]-phenyl}-2-fluoro-benzamide]: the results for the IC50 in assay [1] (Vero), in assay [2] (setting [5]) and in assay [3] (setting [6]) were greater than 10 µg/mL, greater than 10 µg/mL and 5 µg/mL (≈ 10.2 µM), respectively.

Regarding `COc1cccc(C(=O)Nc2ccc(NC(=S)NC(C)c3ccc(F)cc3)cc2)c1` (stereo not drawn) [Example 753, N-(4-{3-[1-(4-Fluoro-phenyl)-ethyl]-thioureido}-phenyl)-3-methoxybenzamide], the figures for the IC50 in assay [1] (Vero), in assay [2] (setting [5]) and in assay [3] (setting [6]) were greater than 10 µg/mL, greater than 0.5 µg/mL and greater than 7.5 µg/mL, respectively.

For the compound `COc1ccc(C(=O)Nc2ccc(NC(=S)NC(C)c3ccc(F)cc3)cc2)cc1` (stereo not drawn) [Example 754, N-(4-{3-[1-(4-Fluoro-phenyl)-ethyl]-thioureido}-phenyl)-4-methoxy-benzamide], the IC50 in assay [1] (Vero) is greater than 10 µg/mL; in assay [2] (setting [5]) it was greater than 10 µg/mL; in assay [3] (setting [6]), 0.2 µg/mL (≈ 0.472 µM).

With `CC(NC(=S)Nc1ccc(NC(=O)c2ccccc2Cl)cc1)c1ccc(F)cc1` (stereo not drawn) [Example 755, 2-Chloro-N-(4-{3-[1-(4-fluoro-phenyl)-ethyl]-thioureido}-phenyl)-benzamide], the values for the IC50 in assay [1] (Vero), in assay [2] (setting [5]) and in assay [3] (setting [6]) were greater than 10 µg/mL, greater than 10 µg/mL and 7 µg/mL (≈ 16.4 µM), respectively.

`CC(NC(=S)Nc1ccc(NC(=O)c2ccc(Cl)cc2)cc1)c1ccc(F)cc1` (stereo not drawn) [Example 756, 4-Chloro-N-(4-{3-[1-(4-fluoro-phenyl)-ethyl]-thioureido}-phenyl)-benzamide]: the IC50 is greater than 10 µg/mL in assay [1] (Vero), greater than 10 µg/mL in assay [2] (setting [5]) and 0.3 µg/mL (≈ 0.701 µM) in assay [3] (setting [6]).

With `CC(=O)Oc1ccc(C(=O)Nc2ccc(NC(=S)NC(C)c3ccc(F)cc3)cc2)cc1` (stereo not drawn) [Example 757, Acetic acid 4-(4-{3-[1-(4-fluoro-phenyl)-ethyl]-thioureido}-phenylcarbamoyl)-phenyl ester], the IC50 in assay [1] (Vero) was greater than 10 µg/mL; in assay [2] (setting [5]), greater than 10 µg/mL; in assay [3] (setting [6]), 1.5 µg/mL (≈ 3.32 µM).

On to `CC(NC(=S)Nc1ccc(NC(=O)c2ccccc2)cc1)c1ccc(F)cc1` (stereo not drawn) [Example 758, N-(4-{3-[1-(4-Fluoro-phenyl)-ethyl]-thioureido}-phenyl)-benzamide], for which the IC50 in assay [1] (HSV- I, Vero cells, ELISA) is greater than 10 µg/mL; in assay [2] (read-out: IC50 ug/ml HCMV), greater than 10 µg/mL; in assay [3] (setting [4]), greater than 10 µg/mL.

In the case of `CC(NC(=S)Nc1ccc(NC(=O)c2ccc(O)cc2)cc1)c1ccc(F)cc1` (stereo not drawn) [Example 760, N-(4-{3-[1-(4-Fluoro-phenyl)-ethyl]-thioureido}-phenyl)-4-hydroxy-benzamide], the IC50 is greater than 10 µg/mL in assay [1] (HSV- I, Vero cells, ELISA); greater than 10 µg/mL in assay [2] (read-out: IC50 ug/ml HCMV); greater than 10 µg/mL in assay [3] (setting [4]).

On to `CC(NC(=S)Nc1ccc(NC(=O)c2cccc(Cl)c2)cc1)c1ccc(F)cc1` (stereo not drawn) [Example 761, 3-Chloro-N-(4-{3-[1-(4-fluoro-phenyl)-ethyl]-thioureido}-phenyl)-benzamide], for which the results for the IC50 in assay [1] (Vero), in assay [2] (setting [5]) and in assay [3] (setting [6]) were 10 µg/mL (≈ 23.4 µM), 1.5 µg/mL (≈ 3.51 µM) and greater than 10 µg/mL, respectively.

As to `CCCCC(NC(=S)Nc1ccc(NC(=O)c2ccccc2F)cc1)c1ccc(F)cc1` (stereo not drawn) [Example 773, 2-Fluoro-N-(4-{3-[1-(4-fluoro-phenyl)-pentyl]-thioureido}-phenyl)-benzamide], the IC50 in assay [1] (Vero) is greater than 10 µg/mL; in assay [2] (setting [5]) it was 1.2 µg/mL (≈ 2.65 µM); in assay [3] (setting [6]), greater than 7.5 µg/mL.

`O=C(Nc1ccc(NC(=S)NC(Cc2ccccc2)c2ccc(F)cc2)cc1)c1ccccc1F` (stereo not drawn) [Example 774, 2-Fluoro-N-(4-{3-[1-(4-fluoro-phenyl)-2-phenyl-ethyl]-thioureido}-phenyl)-benzamide]: the IC50 is greater than 10 µg/mL in assay [1] (Vero), 0.5 µg/mL (≈ 1.03 µM) in assay [2] (setting [5]) and greater than 7.5 µg/mL in assay [3] (setting [6]).

Take `Cc1ccccc1C(C)NC(=S)Nc1ccc(NC(=O)c2ccccc2F)cc1` (stereo not drawn) [Example 775, 2-Fluoro-N-{4-[3-(1-o-tolyl-ethyl)-thioureido]-phenyl}-benzamide]: the IC50 is greater than 10 µg/mL in assay [1] (Vero), 1 µg/mL (≈ 2.45 µM) in assay [2] (setting [5]) and greater than 7.5 µg/mL in assay [3] (setting [6]).

`Cc1cccc(C(C)NC(=S)Nc2ccc(NC(=O)c3ccccc3F)cc2)c1` (stereo not drawn) [Example 776, 2-Fluoro-N-{4-[3-(1-m-tolyl-ethyl)-thioureido]-phenyl}-benzamide]: the IC50 in assay [1] (Vero) was greater than 10 µg/mL; in assay [2] (setting [5]) it was 0.9 µg/mL (≈ 2.21 µM); in assay [3] (setting [6]), greater than 7.5 µg/mL.

`COc1ccc(C(C)NC(=S)Nc2ccc(NC(=O)c3ccccc3F)cc2)cc1` (stereo not drawn) [Example 777, 2-Fluoro-N-(4-{3-[1-(4-methoxy-phenyl)-ethyl]-thioureido}-phenyl)-benzamide]: the IC50 is greater than 10 µg/mL in assay [1] (Vero), 1.7 µg/mL (≈ 4.01 µM) in assay [2] (setting [5]) and greater than 7.5 µg/mL in assay [3] (setting [6]).

Take `CC(NC(=S)Nc1ccc(NC(=O)c2ccccc2F)cc1)c1ccccc1F` (stereo not drawn) [Example 778, 2-Fluoro-N-(4-{3-[1-(2-fluoro-phenyl)-ethyl]-thioureido}-phenyl)-benzamide]: the IC50 in assay [1] (HSV- I, Vero cells, ELISA) was greater than 10 µg/mL; in assay [2] (read-out: IC50 ug/ml HCMV) it was 0.8 µg/mL (≈ 1.94 µM); in assay [3] (setting [4]), 3 µg/mL (≈ 7.29 µM).

`CC(NC(=S)Nc1ccc(NC(=O)c2ccccc2F)cc1)c1cccc(Cl)c1` (stereo not drawn) [Example 779, N-(4-{3-[1-(3-Chloro-phenyl)-ethyl]-thioureido}-phenyl)-2-fluoro-benzamide]: the IC50 in assay [1] (Vero) was greater than 10 µg/mL; in assay [2] (setting [5]), 1.2 µg/mL (≈ 2.8 µM); in assay [3] (setting [6]), greater than 7.5 µg/mL.

As to `CC(NC(=S)Nc1ccc(NC(=O)c2ccccc2F)cc1)c1cccc(Br)c1` (stereo not drawn) [Example 780, N-(4-{3-[1-(3-Bromo-phenyl)-ethyl]-thioureido}-phenyl)-2-fluoro-benzamide], the values for the IC50 in assay [1] (Vero), in assay [2] (setting [5]) and in assay [3] (setting [6]) were greater than 10 µg/mL, 1 µg/mL (≈ 2.12 µM) and 1.2 µg/mL (≈ 2.54 µM), respectively.

As to `CC(NC(=S)Nc1ccc(NC(=O)c2ccccc2F)cc1)c1ccc(Cl)cc1` (stereo not drawn) [Example 781, N-(4-{3-[1-(4-Chloro-phenyl)-ethyl]-thioureido}-phenyl)-2-fluoro-benzamide], the IC50 in assay [1] (Vero) was greater than 10 µg/mL; in assay [2] (setting [5]), 1.8 µg/mL (≈ 4.21 µM); in assay [3] (setting [6]), 0.6 µg/mL (≈ 1.4 µM).
